According to patent publication US7671054B1, “Reverse-turn mimetics and method relating thereto” (Choongwae Pharma Corporation, priority 2001, dated 2010):
Like-named read-outs stand apart in the source and are kept apart here.

Columns and labels:
[1] = tested on: HCT116 cells; assay: Growth inhibition assay (MTS); type: cell-based; conditions: Homo sapiens, Table 5, HCT116 cells, 48 hours treatment, MTS, read-out: Growth Inhibition (GI50, uM) HCT116
Experimental: (§1) SW480 or HCT116 cells were placed into 96 well microplate (10^4cells/well) and incubated for 24 hours at 37° C. 20 μl of [3-(4,5-dimethylthiazol-2-yl)-5-(3-carboxyphenyl)-2-(4-sulfophenyl)-2H-tetrazolium, inner salt](MTS) solution (Promega) was added into each well and the absorbance after 2 hour incubation at 37° C. (negative control) was read. And then, the cells were treated with TCF4 compound at various concentrations for 48 hours. 20 μl of MTS solution (Promega) was added into each well and incubated for 2 hour at 37° C. Cell viability was measured by reading the absorbance at 490 nm using a microplate reader (Molecular device) and cytotoxicity of a compound at each concentration was calculated.
as §1, with “a test” for “TCF4”

[2] = tested on: SW480 cells; assay: Growth inhibition assay (MTS); type: cell-based; conditions: Homo sapiens, Table 5, SW480 cells, 48 hours treatment, MTS, read-out: Growth Inhibition (GI50, uM) SW480
Experimental: as §1
as §1, with “a test” for “TCF4”

Structure (SMILES)	GI50 ([1]; HCT-116, 48 h) [µM]	GI50 ([2]; SW480, 48 h) [µM]	GI50 ([1]; HCT-116) [µM]	GI50 [2] [µM]
C#CCn1cc2c(CN3C[C@H]4N(C(=O)CN(C)N4C(=O)NCc4ccccc4)[C@@H](Cc4ccc(O)cc4)C3=O)cccc2n1 [Compound 71]	3.6 ± 0.7	4.6 ± 0.5		
CN1CC(=O)N2[C@@H](Cc3ccc(O)cc3)C(=O)N(Cc3ccccc3N3CCOCC3)C[C@@H]2N1C(=O)NCc1ccccc1 [Compound 72]	10.3 ± 1.6	10.9 ± 0.6		
COC(=O)c1ccccc1Cn1ncc2c(CN3C[C@H]4N(C(=O)CN(C)N4C(=O)NCc4ccccc4)[C@@H](Cc4ccc(O)cc4)C3=O)cccc21 [Compound 74]	2.4 ± 0.3	1.3 ± 0.4		
CN1CC(=O)N2[C@@H](Cc3ccc(O)cc3)C(=O)N(Cc3cccc4nn(CCN5CCOCC5)cc34)C[C@@H]2N1C(=O)NCc1ccccc1 [Compound 75]	4.5 ± 0.4	2 ± 0.1		
CN1CC(=O)N2[C@@H](Cc3ccc(O)cc3)C(=O)N(Cc3cccc4cnn(Cc5ccc(N)cc5)c34)C[C@@H]2N1C(=O)NCc1ccccc1 [Compound 78]	3.7 ± 0.3	2.2 ± 0.2		
C#CCn1cc2cccc(CN3C[C@H]4N(C(=O)CN(C)N4C(=O)NCc4ccccc4)[C@@H](Cc4ccc(O)cc4)C3=O)c2n1 [Compound 79]	5.2 ± 0.4	2.8 ± 0.2		
C#CCNC(=O)c1ccccc1Cn1ncc2c(CN3C[C@H]4N(C(=O)CN(C)N4C(=O)NCc4ccccc4)[C@@H](Cc4ccc(O)cc4)C3=O)cccc21 [Compound 80]	3.9 ± 0.6	4 ± 0.6		
C#CCN1CC(=O)N2[C@@H](Cc3ccc(O)cc3)C(=O)N(Cc3ccc(Cl)c(N(C)C)c3)C[C@@H]2N1C(=O)NCc1ccccc1 [Compound 83]	2.5 ± 0.1	2.3 ± 0.3		
C#CCN1CC(=O)N2[C@@H](Cc3ccc(O)cc3)C(=O)N(Cc3ccc(F)cc3F)[C@@H](C)[C@@H]2N1C(=O)NCc1ccccc1 [Compound 84]			9.9 ± 1	8.4 ± 1.1
CN1CC(=O)N2[C@@H]([C@H](O)c3ccc(O)cc3)C(=O)N(Cc3ccc(F)cc3F)C[C@@H]2N1C(=O)NCc1ccccc1 [Compound 86]	6.5 ± 0.6	9.6 ± 1.6		
C#CCN1CC(=O)N2[C@@H](Cc3ccc(O)cc3)C(=O)N(Cc3cccc4cccnc34)C[C@@H]2N1C(=O)NCc1ccccc1 [Compound 87]	0.5 ± 0.1	0.6 ± 0.2		
CN(C)Cc1cccc(CN2C[C@H]3N(C(=O)CN(C)N3C(=O)NCc3ccccc3)[C@@H](Cc3ccc(O)cc3)C2=O)c1 [Compound 89]	7.5 ± 1	14.6 ± 1.4		
CN1CC(=O)N2[C@@H](Cc3ccc(O)cc3)C(=O)N(Cc3cccc(N4CCOCC4)c3)C[C@@H]2N1C(=O)NCc1ccccc1 [Compound 90]	14.7 ± 1	12.6 ± 0.9		
C#CCN1CC(=O)N2[C@@H](Cc3ccc(O)cc3)C(=O)N(Cc3cccc(N4CCOCC4)c3)C[C@@H]2N1C(=O)NCc1ccccc1 [Compound 91]	3.2 ± 0.2	1.5 ± 0.1		
O=C1[C@H](Cc2ccc(O)cc2)N2C(=O)CON(C(=O)NCc3ccccc3)[C@H]2CN1Cc1cccc2cccnc12 [Compound 92]	14.9 ± 2.2	12.9 ± 1		
CCN1CC(=O)N2[C@@H](Cc3ccc(O)cc3)C(=O)N(Cc3cccc4cccnc34)C[C@@H]2N1C(=O)NCc1ccccc1 [Compound 93]	1.1 ± 0.1	1.9 ± 0.4		
CCCN1CC(=O)N2[C@@H](Cc3ccc(O)cc3)C(=O)N(Cc3cccc4cccnc34)C[C@@H]2N1C(=O)NCc1ccccc1 [Compound 94]	0.7 ± 0.07	1.1 ± 0.3		
CCN1CC(=O)N2[C@@H](Cc3ccc(O)cc3)C(=O)N(Cc3cccc(N4CCOCC4)c3)C[C@@H]2N1C(=O)NCc1ccccc1 [Compound 95]	7.1 ± 1.2	16.2 ± 2.6		
CCCN1CC(=O)N2[C@@H](Cc3ccc(O)cc3)C(=O)N(Cc3cccc(N4CCOCC4)c3)C[C@@H]2N1C(=O)NCc1ccccc1 [Compound 96]	3.4 ± 0.4	3.7 ± 0.4		

Structure (SMILES)	GI50 ([1]; HCT-116, 48 h) [µM]	GI50 ([2]; SW480, 48 h) [µM]	GI50 ([1]; HCT-116) [µM]	GI50 [2] [µM]
CCN1CC(=O)N2[C@@H](Cc3ccc(O)cc3)C(=O)N(Cc3ccc(Cl)c(N(C)C)c3)C[C@@H]2N1C(=O)NCc1ccccc1 [Compound 97]	5.2 ± 0.5	7.1 ± 1		
CCCN1CC(=O)N2[C@@H](Cc3ccc(O)cc3)C(=O)N(Cc3ccc(Cl)c(N(C)C)c3)C[C@@H]2N1C(=O)NCc1ccccc1 [Compound 98]	4.4 ± 0.5	7 ± 1.1		
C=CCN1CC(=O)N2[C@@H](Cc3ccc(O)cc3)C(=O)N(Cc3cccc(N4CCOCC4)c3)C[C@@H]2N1C(=O)NCc1ccccc1 [Compound 99]	0.7 ± 0.1	1 ± 0.05		
C=CCN1CC(=O)N2[C@@H](Cc3ccc(O)cc3)C(=O)N(Cc3cccc4cccnc34)C[C@@H]2N1C(=O)NCc1ccccc1 [Compound 100]	0.4 ± 0.1	0.3 ± 0.03		
C=CCN1CC(=O)N2[C@@H](Cc3ccc(O)cc3)C(=O)N(Cc3ccc(Cl)c(N(C)C)c3)C[C@@H]2N1C(=O)NCc1ccccc1 [Compound 101]	0.9 ± 0.1	1.1 ± 0.07		
CN1CC(=O)N2[C@@H](Cc3ccc(O)cc3)C(=O)N(Cc3cccc(OCCN4CCOCC4)c3)C[C@@H]2N1C(=O)NCc1ccccc1 [Compound 102]	4.9 ± 1.2	2.5 ± 0.4		
C=CCN1CC(=O)N2[C@@H](Cc3ccc(O)cc3)C(=O)N(Cc3cccc(OCCN4CCOCC4)c3)C[C@@H]2N1C(=O)NCc1ccccc1 [Compound 104]	< 0.4	< 0.4		
C=CCN1CC(=O)N2[C@@H](Cc3ccc(O)cc3)C(=O)N(Cc3ccc(C)c(N4CCOCC4)c3)C[C@@H]2N1C(=O)NCc1ccccc1 [Compound 105]	2.1 ± 0.3	2.8 ± 0.2		
C#CCN1CC(=O)N2[C@@H](Cc3ccc(O)cc3)C(=O)N(Cc3ccc(C)c(N4CCOCC4)c3)C[C@@H]2N1C(=O)NCc1ccccc1 [Compound 106]	2.8 ± 0.4	4.5 ± 0.3		
C#CCN1CC(=O)N2[C@@H](Cc3ccc(O)cc3)C(=O)N(Cc3ccc4c(c3)OCCO4)C[C@@H]2N1C(=O)NCc1ccccc1 [Compound 107]	1.6 ± 0.1	1.6 ± 0.1		
C=CCN1CC(=O)N2[C@@H](Cc3ccc(O)cc3)C(=O)N(Cc3ccc4[nH]nnc4c3)C[C@@H]2N1C(=O)NCc1ccccc1 [Compound 108]	37.9 ± 5.7	24.9 ± 2.2		
C=CCN1CC(=O)N2[C@@H](Cc3ccc(O)cc3)C(=O)N(Cc3ccc(Cl)c4cccnc34)C[C@@H]2N1C(=O)NCc1ccccc1 [Compound 109]	1.1 ± 0.1	1.3 ± 0.3		
C#CCN1CC(=O)N2[C@@H](Cc3ccc(O)cc3)C(=O)N(Cc3ccc(Cl)c4cccnc34)C[C@@H]2N1C(=O)NCc1ccccc1 [Compound 110]	1.9 ± 0.1	2.1 ± 0.3		
C=CCN1CC(=O)N2[C@@H](Cc3ccc(O)cc3)C(=O)N(Cc3ccc(Cl)c(N4CCOCC4)c3)C[C@@H]2N1C(=O)NCc1ccccc1 [Compound 111]	2.1 ± 0.2	2.7 ± 0.8		
C#CCN1CC(=O)N2[C@@H](Cc3ccc(O)cc3)C(=O)N(Cc3ccc(Cl)c(N4CCOCC4)c3)C[C@@H]2N1C(=O)NCc1ccccc1 [Compound 112]	4.7 ± 0.3	5.1 ± 0.5		
C#CCN1CC(=O)N2[C@@H](Cc3ccc(O)cc3)C(=O)N(Cc3ccc4ncsc4c3)C[C@@H]2N1C(=O)NCc1ccccc1 [Compound 113]	3.7 ± 0.6	6.8 ± 1.4		
C=CCN1CC(=O)N2[C@@H](Cc3ccc(O)cc3)C(=O)N(Cc3ccc4ncsc4c3)C[C@@H]2N1C(=O)NCc1ccccc1 [Compound 114]	1.9 ± 0.2	1.7 ± 0.7		
C#CCN1CC(=O)N2[C@@H](Cc3ccc(O)cc3)C(=O)N(Cc3ccc(F)cc3F)C[C@@H]2N1C(=O)NCc1ccccc1 [Compound 116]	1.7 ± 0.1	2.8 ± 0.9		
